Data as given in PubChem BioAssay (NCI).
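These data come from cells grown in 96-well plates and exposed to compound for 48 hours at five concentrations. GI50 = concentration required for 50% inhibition of growth. TGI marks complete inhibition of growth.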

Legend:
Assay in all cases: NCI anticancer screen, dose series, 48 h; in the data active = GI50 below about 0.43 µM; inactive = the rest
SNB-19 CNS = tested on: SNB-19 CNS
MOLT-4 leukemia = tested on: MOLT-4 leukemia
HS 578T breast = tested on: HS 578T breast
MDA-MB-231 breast = tested on: MDA-MB-231 breast
EKVX NSCLC = tested on: EKVX NSCLC
OVCAR-5 ovarian = tested on: OVCAR-5 ovarian
786-0 renal = tested on: 786-0 renal
SK-MEL-5 melanoma = tested on: SK-MEL-5 melanoma
T-47D breast = tested on: T-47D breast
SR leukemia = tested on: SR leukemia
U251 CNS = tested on: U251 CNS
CAKI-1 renal = tested on: CAKI-1 renal
OVCAR-4 ovarian = tested on: OVCAR-4 ovarian
NCI-H460 lung = tested on: NCI-H460 lung
SW-620 colon = tested on: SW-620 colon
CCRF-CEM leukemia = tested on: CCRF-CEM leukemia
BT-549 breast = tested on: BT-549 breast
A498 renal = tested on: A498 renal
K-562 leukemia = tested on: K-562 leukemia
MCF7 breast = tested on: MCF7 breast
OVCAR-8 ovarian = tested on: OVCAR-8 ovarian
LOX IMVI melanoma = tested on: LOX IMVI melanoma
RXF 393 renal = tested on: RXF 393 renal
HCC-2998 colon = tested on: HCC-2998 colon
HL-60(TB) leukemia = tested on: HL-60(TB) leukemia
NCI-H522 lung = tested on: NCI-H522 lung
UO-31 renal = tested on: UO-31 renal
ACHN renal = tested on: ACHN renal
KM12 colon = tested on: KM12 colon

CC(C)(C(=O)NCC(F)(F)C(F)(F)F)C(=O)N[C@@H]1C(=O)Nc2ccccc2-c2ccccc21
> 100 µM: TGI (SNB-19 CNS) | TGI (MOLT-4 leukemia) | TGI (HS 578T breast) | TGI (MDA-MB-231 breast) | TGI (EKVX NSCLC) | TGI (OVCAR-5 ovarian) | TGI (786-0 renal) | TGI (U251 CNS) | TGI (CAKI-1 renal) | TGI (OVCAR-4 ovarian) | TGI (NCI-H460 lung) | TGI (SW-620 colon) | TGI (CCRF-CEM leukemia) | TGI (BT-549 breast) | TGI (A498 renal) | TGI (K-562 leukemia) | TGI (MCF7 breast) | TGI (OVCAR-8 ovarian) | TGI (LOX IMVI melanoma) | TGI (HCC-2998 colon) | TGI (HL-60(TB) leukemia) | TGI (NCI-H522 lung) | TGI (UO-31 renal) | TGI (ACHN renal) | TGI (KM12 colon)
> 78.7 µM: TGI (RXF 393 renal)
inactive: GI50 (SNB-19 CNS) 62.3 µM | GI50 (MOLT-4 leukemia) 40.3 µM | GI50 (HS 578T breast) > 56 µM | GI50 (MDA-MB-231 breast) 44 µM | GI50 (EKVX NSCLC) 52.7 µM | GI50 (OVCAR-5 ovarian) 97 µM | GI50 (786-0 renal) > 64.3 µM | GI50 (SK-MEL-5 melanoma) 16 µM | GI50 (T-47D breast) 23.7 µM | GI50 (SR leukemia) 35.5 µM | GI50 (U251 CNS) > 78.5 µM | GI50 (CAKI-1 renal) 45.4 µM | GI50 (OVCAR-4 ovarian) 34.1 µM | GI50 (NCI-H460 lung) 52.4 µM | GI50 (SW-620 colon) > 70.2 µM | GI50 (CCRF-CEM leukemia) 45.3 µM | GI50 (BT-549 breast) 36.3 µM | GI50 (A498 renal) 50.3 µM | GI50 (K-562 leukemia) > 67.3 µM | GI50 (MCF7 breast) 27.3 µM | GI50 (OVCAR-8 ovarian) 55.6 µM | GI50 (LOX IMVI melanoma) > 59.2 µM | GI50 (RXF 393 renal) 20 µM | GI50 (HCC-2998 colon) 40.6 µM | GI50 (HL-60(TB) leukemia) 37.5 µM | GI50 (NCI-H522 lung) 65.1 µM | GI50 (UO-31 renal) 32.3 µM | GI50 (ACHN renal) 50.4 µM | GI50 (KM12 colon) 73.3 µM
99 µM: TGI (T-47D breast) | TGI (SR leukemia)
37.5 µM: TGI (SK-MEL-5 melanoma)
